# BindingDB's records for patent US20250243194 (Adorx Therapeutics, 2025)
# Legend:
# Assay in all cases: Adenosine Receptor Time-Resolved Fluorescence Resonance Energy Transfer (TRFRET) Binding Assay
# Adenosine receptor A1 = target: T1, Adenosine receptor A1 (Homo sapiens, UniProt P30542)
# T1 sequence (P30542 whole entry): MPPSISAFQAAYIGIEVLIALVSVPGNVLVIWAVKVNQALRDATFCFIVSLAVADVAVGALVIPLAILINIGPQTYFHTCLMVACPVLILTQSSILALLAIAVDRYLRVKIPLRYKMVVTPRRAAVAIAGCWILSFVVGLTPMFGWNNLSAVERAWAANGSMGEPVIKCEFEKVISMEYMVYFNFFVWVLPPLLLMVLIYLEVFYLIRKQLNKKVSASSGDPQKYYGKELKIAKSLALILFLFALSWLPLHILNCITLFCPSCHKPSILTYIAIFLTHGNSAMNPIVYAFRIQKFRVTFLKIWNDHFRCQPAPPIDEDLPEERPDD
# Experimental: (§1) All FRET binding experiments were conducted at room temperature in white 384-well plates, in assay binding buffer containing 1× LabMed (Cisbio, France), 100 μg/mL saponin, 1% DMSO and 0.02% pluronic acid. Binding of the fluorescently labelled Adenosine receptor antagonist XAC (CA200645, FRET acceptor) to terbium-labelled A1, A2a, A2b and A3 adenosine receptors (FRET donors) was detected by time-resolved FRET due to the close proximity of the donor and acceptor in a binding event. To investigate the ability of unlabelled test compounds to bind to Adenosine A1, A2a, A2b and A3 receptors, dose response curves were constructed that determined the ability of a range of concentrations to inhibit the binding of 30 nM CA200645 to the A2b receptor and 100 nM CA200645 to the A1, A2a, and A3 receptor.Serial dilution (1:3 dilutions) of test compounds in neat DMSO and transfer of a 400 nL sample of test compound into the assay plate was carried out using the Mosquito (TTP Labtech, UK). The compound samples were incubated for 2 hours at room temperature with a fixed concentration of CA200645 defined for each receptor (see above) and CHO cell membranes containing the human Adenosine A1 (0.5 μg/well), A2a (0.3 μg/well), A2b (1 μg/well) or A3 (1 μg/well) receptor in 40 μL of assay buffer. Total and non-specific binding of CA200645 was determined in the absence and presence of 10 μM XAC, respectively. Following 2 hours incubation, the level of CA200645 binding was detected on a Pherastar FSX (BMG Labtech, Germany) using standard TR-FRET settings.
# Adenosine receptor A2a = Adenosine receptor A2a (Homo sapiens, UniProt P29274)
# Experimental: as §1
# Adenosine receptor A2b = target: T2, Adenosine receptor A2b (Homo sapiens, UniProt P29275)
# T2 sequence (P29275 whole entry): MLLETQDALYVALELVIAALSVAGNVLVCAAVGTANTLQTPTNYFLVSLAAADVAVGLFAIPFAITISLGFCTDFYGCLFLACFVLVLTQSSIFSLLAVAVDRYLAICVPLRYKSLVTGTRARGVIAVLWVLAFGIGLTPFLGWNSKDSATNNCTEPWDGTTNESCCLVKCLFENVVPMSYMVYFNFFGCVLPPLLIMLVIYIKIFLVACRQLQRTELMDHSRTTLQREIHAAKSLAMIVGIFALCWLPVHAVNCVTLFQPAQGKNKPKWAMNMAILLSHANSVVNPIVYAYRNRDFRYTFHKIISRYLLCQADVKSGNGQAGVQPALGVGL
# Experimental: as §1
# Adenosine receptor A3 = target: T3, Adenosine receptor A3 (Homo sapiens, UniProt P0DMS8)
# T3 sequence (P0DMS8 whole entry): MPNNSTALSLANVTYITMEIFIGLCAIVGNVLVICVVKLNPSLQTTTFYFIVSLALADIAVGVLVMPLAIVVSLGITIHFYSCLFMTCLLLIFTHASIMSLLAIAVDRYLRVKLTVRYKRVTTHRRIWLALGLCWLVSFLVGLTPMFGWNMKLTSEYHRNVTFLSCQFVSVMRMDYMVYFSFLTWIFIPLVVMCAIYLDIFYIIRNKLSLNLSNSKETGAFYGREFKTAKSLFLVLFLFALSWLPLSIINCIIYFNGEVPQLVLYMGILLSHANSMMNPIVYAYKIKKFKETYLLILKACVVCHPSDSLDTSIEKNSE
# Experimental: as §1
# Adenosine receptor A2a, sequence (P29274 whole entry): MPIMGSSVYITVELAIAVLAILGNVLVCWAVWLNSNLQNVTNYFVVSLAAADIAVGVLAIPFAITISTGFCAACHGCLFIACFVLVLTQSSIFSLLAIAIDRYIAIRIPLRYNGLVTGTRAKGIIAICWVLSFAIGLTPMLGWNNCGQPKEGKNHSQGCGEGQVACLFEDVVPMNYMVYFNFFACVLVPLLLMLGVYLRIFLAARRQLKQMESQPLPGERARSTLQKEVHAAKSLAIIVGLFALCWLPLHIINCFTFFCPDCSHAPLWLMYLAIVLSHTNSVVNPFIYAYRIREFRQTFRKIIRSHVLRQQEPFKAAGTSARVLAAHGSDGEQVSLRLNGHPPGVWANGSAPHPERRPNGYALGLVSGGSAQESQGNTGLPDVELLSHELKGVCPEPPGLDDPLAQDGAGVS
Structure (SMILES),Ki (Adenosine receptor A1) [nM],Ki (Adenosine receptor A2a) [nM],Ki (Adenosine receptor A2b) [nM],Ki (Adenosine receptor A3) [nM]
"Cc1ncnc2ccc(-c3sc(NC(=O)N4CCC(N(C)C)CC4)nc3-c3cccc(C#N)c3)cc12 [US20250243194, Example 7.6]",62,0.55,2.5,–
"Cn1cc(-c2sc(NC(=O)N3CC4(COC4)C3)nc2-c2cccc(C#N)c2)c2cccnc21 [US20250243194, Example 16]",122,5.17,9.8,2130
"Cc1ncnc2ccc(-c3sc(NC(=O)N4C[C@@H]5OCCN(C)[C@@H]5C4)nc3-c3cccc(C#N)c3)cc12 [US20250243194, Example 7.20]",57,0.2,1.4,–

# Molecules with a lower Ki (Adenosine receptor A1), results first:
Ki (Adenosine receptor A1) [nM],Ki (Adenosine receptor A2a) [nM],Ki (Adenosine receptor A2b) [nM],Ki (Adenosine receptor A3) [nM],Structure (SMILES)
20,0.42,3,–,"Cc1ncnc2ccc(-c3sc(NC(=O)N4CCN(C)CC4)nc3-c3cccc(C#N)c3)cc12 [US20250243194, Example 7.22]"
9,0.3,1.6,–,"Cc1ncnc2ccc(-c3sc(NC(=O)N4CCNCC4)nc3-c3cccc(C#N)c3)cc12 [US20250243194, Example 7.21]"
0.4,0.04,0.5,–,"Cc1ccnc2ccc(-c3sc(NC(=O)N4CC5(COC5)C4)nc3-c3cccc(C#N)c3)cc12 [US20250243194, Example 11]"
0.2,0.17,0.8,–,"COc1ncnc2ccc(-c3sc(NC(=O)N4CC5(COC5)C4)nc3-c3cccc(C#N)c3)cc12 [US20250243194, Example 12]"
